Patent US11555014B2, “High penetration prodrug compositions of prostaglandins and related compounds” (Techfields Pharma Co., Ltd., priority 2006, dated 2023)

Legend:
[1] = Solubility in water; format: physicochemical
Experimental: 37.7 g (0.1 mol) of sodium 11,15-dihydroxy-9-oxoprost-13-en-1-oate was dissolved in 100 ml of acetonitrile. 26.1 g (0.1 mol) of 2-Bromo-N,N-diethylethylamine.HBr and 8.6 g of sodium bicarbonate were added into the reaction mixture. The mixture was stirred for overnight at RT. The solvents were evaporated off. 250 ml of ethyl acetate was added into the reaction mixture and the mixture was washed with water (3×100 ml). The organic solution was dried over anhydrous sodium sulfate. Sodium sulfate was removed by filtration. 6 g of acetic acid was added into the reaction mixture with stirring. Hexane (200 ml) was added. The solid product was collected by filtration. After drying, it yielded 42 g of the desired product (81.8%). Hygroscopic product; Solubility in water: 100 mg/ml; Elementary analysis: C28H51NO7; MW: 513.37. Calculated % C, 65.47; H, 10.01; N, 2.73; O, 21.80. Found % C, 65.42; H, 10.03; N, 2.70; O, 21.85.
43.7 g (0.1 mol) of 11,15-diacetoxy-9-oxoprosta-5,13-dien-1-oic acid was dissolved in 300 ml of chloroform. 20.6 g of N,N′-Dicyclohexylcarbodiimide was added into the reaction mixture. 11.7 g of N,N-diethylaminoethylamine was added into the reaction mixture. The mixture was stirred for 3 hours at RT. The solid was removed by filtration. The chloroform solution was washed with 5% NaHCO3 (2×100 ml) and water (3×100 ml). The organic solution was dried over anhydrous sodium sulfate. Sodium sulfate was removed by filtration. 6 g of acetic acid was added into the reaction mixture with stirring. Hexane (200 ml) was added. The solid product was collected by filtration. After drying, it yielded 45 g of the desired product (85.8%). Hygroscopic product; Solubility in water: 100 mg/ml; Elementary analysis: C34H59NO9S; MW: 657.90. Calculated % C, 62.07; H, 9.04; N, 2.13; O, 21.89; S, 4.87. Found % C, 62.02; H, 9.06; N, 2.11; O, 21.95; S, 4.86.
49.9 g (0.1 mol) of 9,11,15-triacetoxyprost-13-en-1-oic acid was dissolved in 300 ml of chloroform. 20.6 g of N,N′-Dicyclohexylcarbodiimide was added into the reaction mixture. 13.1 g of dimethylaminoethyl mercaptan was added into the reaction mixture. The mixture was stirred for 3 hours at RT. The solid was removed by filtration. The chloroform solution was washed with 5% NaHCO3 (2×100 ml) and water (3×100 ml). The organic solution was dried over anhydrous sodium sulfate. Sodium sulfate was removed by filtration. 6 g of acetic acid was added into the reaction mixture with stirring. Hexane (200 ml) was added. The solid product was collected by filtration. After drying, it yielded 45 g of the desired product (85.8%). Hygroscopic product; Solubility in water: 100 mg/ml; Elementary analysis: C32H53NO9; MW: […] Calculated % C, 64.51; H, 8.97; N, 2.35; O, 24.17. Found % C, 64.47; H, 8.99; N, 2.34; O, 24.20.
37.7 g (0.1 mol) of sodium 9,11,15-trihydroxyprosta-5,13-dien-1-oate was dissolved in 100 ml of acetonitrile. 39 g (0.15 mol) of 2-Bromo-N,N-diethylethylamine.HBr in ethyl acetate was added into the reaction mixture. The mixture was stirred for 3 h at RT. Then 8 g of sodium bicarbonate was added into the reaction mixture. The mixture is stirred for another 2 h at RT. The solvents were evaporated off. 250 ml of ethyl acetate was added into the reaction mixture and the mixture was washed with water (3×100 ml). The organic solution was dried over anhydrous sodium sulfate. Sodium sulfate was removed by filtration. 6 g of acetic acid was added into the reaction mixture with stirring. […] Calculated % C, 65.47; H, 10.01; N, 2.73; O, 21.80. […]

[2] = tested on: cats with ocular hypertension; test: Intraocular pressure (IOP) reduction in cats with ocular hypertension produced by laser trabeculoplasty; format: in vivo, cat; conditions: for Intraocular pressure, 24 hours after administration / Intraocular pressure, 36 hours after administration / Intraocular pressure, 48 hours after administration / Intraocular pressure, 60 hours after administration / Intraocular pressure, 72 hours after administration: one drop topical every 12 hours, 6 doses; for Intraocular pressure, baseline: prior to treatment
Experimental: The ability of certain compounds of the present invention to reduce intraocular pressure (IOP) was evaluated in cats with ocular hypertension produced by previously done laser trabeculoplastry. IOP was determined with a pneumatonometer after light corneal anesthesia with dilute proparacaine. Baseline IOP was determined prior to treatment with the test compound aqueous solution. 6 divided doses were administered over a period of 3 days (once every 12 hours). IOP was determined 24 hours after the initial dose and then once every 12 hours. The therapeutically efficient amount is typically between 0.001 and 0.01% in pH 7.2 phosphate buffer (0.1 M). The treatment was carried out in that one drop (about 30 micro liter) of the composition. The results of N,N-diethylaminoethyl 11,15-dihydroxy-9-oxoprost-13-en-1-oate.AcOH (A), N,N-diethylaminoethyl 11,15-dihydroxyl-9-oxoprosta-5,13-dien-1-oate.AcOH (B), N,N-diethylaminoethyl 9,11,15-trihydroxyprosta-5,13-dien-1-oate.AcOH(C), N,N-diethylaminoethyl 9,11-dihydroxy-15-keto-20-ethylprost-5,13-dien-1-oate.AcOH (9,11-dihydroxy-15-keto-20-ethylprostaglandin F2α N,N-diethylaminoethyl ester) (D), N,N-diethylaminoethyl (Z)-7-{(1R,2R,3R,5S)-3,5-dihydroxy-2-[(1E,3R)-3-hydroxy-4-[(α,α,α-trifluoro-m-tolyl)oxy]-1-butenyl]cyclopentyl}-5-heptenoate.AcOH (E), N,N-diethylaminoethyl (Z)-7{(1R,2R,3R,5S)-3,5-dihydroxy-2-[(3R)-3-hydroxy-5-phenylpentyl]cyclopentyl}-5-heptenoate.AcOH (F), and N,N-diethylaminoethyl (Z)-7-{(1R,2R,3R,5S)-3,5-Dihydroxy-2-[(1E,3S)-3-hydroxy-5-phenyl-1-pentenyl]cyclopentyl}-heptenoate.AcOH (G) are shown in Table 2.

[3] = tested on: rabbit eye; test: Conjunctival hyperemia in the rabbit eye after topical application; format: in vivo; conditions: first 2 hours, scale 0 (no hyperemia) to 4 (marked hyperemia with conjunctive chemosis)
Experimental: Conjunctival hyperemia in the rabbit eye of naturally occurring and modified prostaglandins and their novel prodrugs was evaluated during the first 2 hours after topical application of the respective test drug. The conjunctival hyperemia was graded on a scale from 0 to 4, 0 indicating complete absence of any hyperemia, and 4 indicating marked hyperemia with conjunctive chemosis.

[4] = tested on: cat eye; test: Irritative effect or ocular discomfort in the cat eye after topical application; format: in vivo; conditions: first 2 hours, scale 0 (no discomfort) to 4 (maximal irritation, complete lid closure)
Experimental: Irritative effect or ocular discomfort in the cat eye of naturally occurring and modified prostaglandins and their novel prodrugs were evaluated during the first hours after the topical application of the respective test drug. The ocular discomfort was graded on a scale from 0 to 4, 0 indicating complete absence of any signs of discomfort, and 4 indicating maximal irritation as obvious from complete lid closure.

[5] = In vitro penetration rate across isolated human skin in modified Franz cells; conditions: 10% solution in pH 7.4 phosphate buffer (0.2 M), n=5
Experimental: The penetration rates of HPPs and their parent drugs through human skin were measured in vitro by modified Franz cells. The Franz cells have two chambers, the top sample chamber and the bottom receiving chamber. The human skin tissue (360-400 μm thick) that separates the top and the receiving chambers was isolated from the anterior or posterior thigh areas.
The compound tested (2 mL, 20% in 0.2 M phosphate buffer, pH. 7.4) were added to the sample chamber of a Franz cell. The receiving chamber contains 10 ml of 2% bovine serum albumin in saline which was stirred at 600 rpm. The cumulative amounts of the tested compounds penetrating the skin versus time were determined by high-performance liquid chromatography (HPLC) method.

[6] = Milosovich et al., J. Pharm. Sci., 82, 227 (1993); cited from earlier work
[7] = tested on: rats; test: Sexual behaviour (solicitation, copulation) of rats after application to genital area; format: in vivo, rat
Experimental: The HPP of the invention can diffuse through human skin in very high rate (˜1 mg/h/cm^2) and can provide almost side-effects-free methods of treating erectile dysfunction or enhancing female sexual arousal. About 0.01 ml of 0.0005% [˜0.05 μg (microgram)] N,N-diethylaminoethyl 11,15-dihydroxy-9-oxoprost-13-en-1-oate.AcOH in pH 7.0 phosphate buffer (0.1 M) was applied to genital area of male rats (30 rats) once per day for 5 days.
When same amount of N,N-diethylaminoethyl 11,15-dihydroxy-9-oxoprost-13-en-1-oate.AcOH in pH 7.0 phosphate buffer (0.1 M) were applied to genital area of both male rats (30 rats) and female rats (30 rates) once per day for 5 days.

[8] = about 0.01 ml of 0.0005% (~0.05 μg) applied to genital area of male rats once per day for 5 days
[9] = same amount applied to genital area of both male and female rats once per day for 5 days

Molecule | Solubility in water [1] [mg/mL] | Intraocular pressure, 24 hours after administration ([2]; dose 0.001%) | Intraocular pressure, 36 hours after administration ([2]; dose 0.001%) | Intraocular pressure, 48 hours after administration ([2]; dose 0.001%) | Intraocular pressure, 60 hours after administration ([2]; dose 0.001%) | Intraocular pressure, 72 hours after administration ([2]; dose 0.001%) | Intraocular pressure, baseline ([2]; group dosed 0.001%) | Degree of irritative effect (conjunctival hyperemia) ([3]; dose 0.001% topical) | Degree of irritative effect ([4]; dose 0.001% topical) | In vitro penetration rate (apparent flux), prodrug compounds [5] [mg/cm^2/h] | other results
CC(=O)O.CCCCCC(O)C=C[C@H]1C(O)CC(O)[C@@H]1CC=CCCCC(=O)OCCN(CC)CC (some centres unmarked) [N,N-diethylaminoethyl 9,11,15-trihydroxyprosta-5,13-dien-1-oate.AcOH] | 100 | 15.5 ± 0.5 | 15.6 ± 0.6 | 15.7 ± 0.5 | 15.6 ± 0.7 | 15.5 ± 0.6 | 22.5 ± 0.7 | 1 | 1 | 0.94 | 
CN(C)CCCC(=O)O[C@H]1CC[C@H]2[C@@H]3CCC4=CC(=O)CC[C@]4(C)[C@H]3CC[C@]12C.Cl [TSBH, testosteronyl-4-dimethylaminobutyrate.HCl] |  |  |  |  |  |  |  |  |  |  | Diffusion through human skin, times faster than the parent drug (TS) [6]: about 60 times
CC(=O)O.CCCCCC(C=C[C@H]1C(OC(C)=O)CC(OC(C)=O)[C@@H]1CCCCCCC(=O)SCCN(C)C)OC(C)=O (some centres unmarked) [S—(N,N-dimethylaminoethyl) 9,11,15-triacetoxythioprost-13-en-1-oate.AcOH] | 100 |  |  |  |  |  |  |  |  |  | 
CC(=O)O.CCCCCCCC(=O)C=C[C@H]1C(O)CC(O)[C@@H]1CC=CCCCC(=O)OCCN(CC)CC (some centres unmarked) [N,N-diethylaminoethyl 9,11-dihydroxy-15-keto-20-ethylprost-5,13-dien-1-oate.AcOH] |  |  |  |  |  |  |  |  |  | 1.05 | Intraocular pressure, 24 hours after administration ([2]; dose 0.01%): 16.5 ± 0.6; Intraocular pressure, 36 hours after administration ([2]; dose 0.01%): 16.7 ± 0.4; Intraocular pressure, 48 hours after administration ([2]; dose 0.01%): 16.8 ± 0.6; Intraocular pressure, 60 hours after administration ([2]; dose 0.01%): 17.1 ± 0.5; Intraocular pressure, 72 hours after administration ([2]; dose 0.01%): 16.8 ± 0.5; Intraocular pressure, baseline ([2]; group dosed 0.01%): 22.0 ± 0.6; Degree of irritative effect (conjunctival hyperemia) ([3]; dose 0.01% topical): 1; Degree of irritative effect ([4]; dose 0.01% topical): 1
CC(=O)O.CCN(CC)CCOC(=O)CCC/C=C\C[C@@H]1[C@@H](CC[C@@H](O)CCc2ccccc2)[C@H](O)C[C@@H]1O [N,N-diethylaminoethyl (Z)-7{(1R,2R,3R,5S)-3,5-dihydroxy-2-[(3R)-3-hydroxy-5-phenylpentyl]cyclopentyl}-5-heptenoate.AcOH] |  | 15.6 ± 0.5 | 15.7 ± 0.4 | 15.6 ± 0.5 | 15.5 ± 0.4 | 15.6 ± 0.6 | 22.5 ± 0.5 | 1 | 1 | 0.95 | 
CC(=O)O.CCCCCC(O)C=CC1C(O)CC(=O)C1CCCCCCC(=O)OCCN(CC)CC (centres unmarked) [N,N-diethylaminoethyl 11,15-dihydroxy-9-oxoprost-13-en-1-oate.AcOH] | 100 |  |  |  |  |  |  |  |  | 1.01 | Increase in copulation compared to rats not given the drug [7, 8]: 4 fold; Increase in solicitation compared to rats not given the drug [7, 8]: 6 fold; Discomfort of treated rats ([7]; applied to genital area of rats once per day for 5 days): did not show any discomfort; Increase in copulation compared to rats not given the drug [7, 9]: 6 fold; Increase in solicitation compared to rats not given the drug [7, 9]: 6 fold
CC(=O)O.CCN(CC)CCOC(=O)CCC/C=C\C[C@@H]1[C@@H](/C=C/[C@@H](O)CCc2ccccc2)[C@H](O)C[C@@H]1O [N,N-diethylaminoethyl (Z)-7-{(1R,2R,3R,5S)-3,5-Dihydroxy-2-[(1E,3S)-3-hydroxy-5-phenyl-1-pentenyl]cyclopentyl}-heptenoate.AcOH] |  | 15.2 ± 0.6 | 15.4 ± 0.5 | 15.5 ± 0.4 | 15.4 ± 0.6 | 15.4 ± 0.5 | 22.4 ± 0.6 | 1 | 1 | 0.85 | 
N,N-diethylaminoethyl 11,15-diacetoxy-9-oxoprosta-5,13-dien-1-oamide.AcOH | 100 |  |  |  |  |  |  |  |  |  | 
